Experimental data taken from patent US4515785A, “Neem bark extracts” (priority 1980, dated 1985).
Values after ≈ are worked out from the molar mass of the structure shown. Values joined by “and” are separate entries in the source; they are usually repeats but may differ in a detail not shown here. Identical values can stand only once. *1 amine or outer side, *2 acyl side, *3 side chain or, on linkers, in order; H or OH if unused. Where a SMILES comes first, the peptide text is derived from it. Bridges are numbered along the chain shown (N, C = ends). Roman numbers before positions name the chains, in order. [ ]: non-standard residue; d: D form. Actinocin(9to1) = Cc1c2oc3c(C)ccc(C(=O)[*:1])c3nc-2c(C(=O)[*:2])c(N)c1=O; NMeV = CN[C@H](C(=O)O)C(C)C; Sar = CNCC(=O)O

Columns and labels:
mouse L-5178Y cells = assay: Effects on mouse L-5178Y cells (Test III); type: cell-based; conditions: 2 days
Method: A medium containing 1×10^5 cells/ml. was prepared using mouse L-5178Y cells cultivated on RPMI-1640 medium containing 10% fetal bovine serum for 3 days. The medium was placed in a 96-well U-type microplate in an amount of 50 μl. per well.
A portion of the test material, which was one of the extracts according to the invention described in the above examples, was dissolved in the medium to a final concentration in the medium as shown in Table II below. The amount of the solution per well was 60 μl. The test material thus prepared was incubated in a carbon-dioxide incubator at 37° C. for 2 days. After completion of the incubation, the cells were collected and counted well by well, and the cell counts were compared with cell count of the control which contained no test material. The cell could of the control was approximately 8.6×10^5 /ml. For activity comparison's sake, the same test was done with mitomycin C (MMC) or bleomycin (BLM). In the table below, T/C represents the ratio of count of the cells treated with the test material to that with no test material added. ID50 is the concentration of the test material required for decreasing concentration of the cells to 1/2 that of the control.
The neem extracts produced in Examples 5-7 above were tested for effects on mouse L-5178Y cells, sarcoma 180 ascites and solid tumors according to the methods described in Tests II-IV.

[1] = system: sarcoma 180 ascites tumor; assay: Effects on sarcoma 180 ascites tumor (Test IV); type: in vivo, mouse (ICR); conditions: Table III; for T/C (TPCV ratio treated/control): 4 days, 7th day
Method: A portion of each of the extraction fractions was suspended or dissolved in 0.5% suspension of carboxymethylcellulose (CMC) in a phosphate buffered saline solution (PBS commercially available from GIBCO Laboratories, containing ca. 9.5 mM phosphate) to a predetermined concentration.
Mouse sarcoma 180 tumor cells which have been subcultivated intraperitoneally in ICR mice were drawn from the mouse together with the ascites and diluted with physiological saline solution to a cell count of 10^8 per ml. The tumor cell suspension thus prepared was transplanted by means of a syringe intraperitoneally into 4 week-old male ICR mice at a dose of 0.1 ml. Consequently, the cell count transplanted per mouse was 1×10^7.
The test material as prepared above was intraperitoneally administered at a dose of 0.1 ml. per mouse for 4 days once a day from the next day of the transplantation of mouse sarcoma 180 tumor cells. A group of 6 mice was employed for each concentration of each test material. […] As a control was administered the CMC-containing PBS as described above only in the same way as above. The dose is expressed as weight per kg. bodyweight of mouse.
On the 7th day of transplantation of the tumor cells the bodyweight of each mouse was measured (X). Then, ascites was thoroughly drawn from the mouse, followed by measurement of the bodyweight (Y). X-Y is taken as the amount of ascites.
The drawn ascites was the introduced into a hematocrit tube and then centrifuged at 15,000 G for 5 minutes using a hematocrit rotor at a low temperature. There was thus made determination of the ascitocrit value, that is, proportion of the cells present in the ascites which corresponded to the hematocrit value in hematology. The value multiplied by volume of the ascites gives the volume of the cells present in the ascites. This is designated as total packed cell volume (TPCV).
Effect on the tumor was rated ineffective (-) when the TPCV ratio of the treated to the control (T/C) was 100-66%, plus 1 (+) when it was 65-41%, plus 2 (++) when it was 40-11%, and plus 3 (+++) when it was 10-0%.

sarcoma 180 solid tumor = assay: Effects on sarcoma 180 solid tumor (Test V); type: in vivo, mouse (ICR); conditions: Table IV; for T/C (tumor weight ratio treated/control): 15th-21st day
Method: Test materials were prepared in the same manner as in Test IV under (1).
A cell suspension containing 1×10^8 cells per ml. was prepared in the same way as in Test IV under (2). Four week old-ICR mice was innoculated subcutaneously on the back with 0.1 ml. of the suspenstion by means of a syringe.
As in Test IV under (3), a group of 6 animals was used for each concentration of each test material.
Grown tumor tissue was resected on the 15th-21st day of the tumor cell transplantation and weighed. An average for the group of 6 animals was taken for the evaluation. The effect was evaluated on the basis of ratio of the average weight for the treated animals to that of the control animals. […] Ratios (T/C) of 100-71% were rated ineffective (-), of 70-51% plus 1 (+), of 50-21% plus 2 (++), and of 20-0% plus 3 (+++).

Molecule: CO[C@@]12[C@H](COC(N)=O)C3=C(C(=O)C(C)=C(N)C3=O)N1C[C@@H]1N[C@@H]12 [MMC, mitomycin C]
- activity at 0.1 µg/mL (mouse L-5178Y cells; Mus musculus, L5178Y, 48 h, 0.1 μg./ml., read-out: T/C (cell count treated / no test material)): 47.9%
- activity at 0.3 µg/mL (mouse L-5178Y cells; Mus musculus, L5178Y, 48 h, 0.3 μg./ml., read-out: T/C (cell count treated / no test material)): 24.7%
- activity at 1 µg/mL (mouse L-5178Y cells; Mus musculus, L5178Y, 48 h, 1.0 μg./ml., read-out: T/C (cell count treated / no test material)): 13.4%
- IC50 (mouse L-5178Y cells; Mus musculus, L5178Y, 48 h, Table II, concentration decreasing cells to 1/2 of control, read-out: ID50 (the source's name)): 0.09 µg/mL (≈ 0.269 µM)
- Rating ([1]; 0.5 mg./kg.): +++ (plus 3 (+++) when it was 10-0%)
- T/C (TPCV ratio treated/control) ([1]; 0.5 mg./kg. i.p. once a day): 0%
- Rating ([1]; 1.5 mg./kg.): +++ (plus 3 (+++) when it was 10-0%)
- T/C (TPCV ratio treated/control) ([1]; 1.5 mg./kg. i.p. once a day): 0%
- Rating (sarcoma 180 solid tumor; 0.5 mg./kg.): - (Ratios (T/C) of 100-71% were rated ineffective (-))
- T/C (tumor weight ratio treated/control) (sarcoma 180 solid tumor; 0.5 mg./kg.): 71.0%
- T/C (tumor weight ratio treated/control) (sarcoma 180 solid tumor; 1.5 mg./kg.): 32.5% and 50.2%

Molecule: bleomycin [BLM]
- T/C (cell count treated / no test material) (mouse L-5178Y cells; 5 μg./ml.): 57.1%
- T/C (cell count treated / no test material) (mouse L-5178Y cells; 10 μg./ml.): 46.1%
- T/C (cell count treated / no test material) (mouse L-5178Y cells; 100 μg./ml.): 8.8%
- ID50 (mouse L-5178Y cells; Table II, concentration decreasing cells to 1/2 of control): 7.8 µg/mL
- Rating ([1]; 10 mg./kg.): +++ (plus 3 (+++) when it was 10-0%)
- T/C (TPCV ratio treated/control) ([1]; 10 mg./kg. i.p. once a day): 0%
- T/C (tumor weight ratio treated/control) (sarcoma 180 solid tumor; 10 mg./kg.): 43.5% and 52.3%

Molecule: O=c1[nH]cc(F)c(=O)[nH]1 [Example 5-Fu, 5-fluorouracil]
- Rating ([1]; 20 mg./kg.): +++ (plus 3 (+++) when it was 10-0%)
- T/C (TPCV ratio treated/control) ([1]; 20 mg./kg. i.p. once a day): 0%
- Rating (sarcoma 180 solid tumor; 20 mg./kg.): + (of 70-51% plus 1 (+))
- T/C (tumor weight ratio treated/control) (sarcoma 180 solid tumor; 20 mg./kg.): 47.8%

Molecule: Cc1c2oc3c(C)ccc(C(=O)N[C@@H]4C(=O)N[C@H](C(C)C)C(=O)N5CCC[C@H]5C(=O)N(C)CC(=O)N(C)[C@@H](C(C)C)C(=O)O[C@@H]4C)c3nc-2c(C(=O)N[C@@H]2C(=O)N[C@H](C(C)C)C(=O)N3CCC[C@H]3C(=O)N(C)CC(=O)N(C)[C@@H](C(C)C)C(=O)O[C@@H]2C)c(N)c1=O [ACD, actinomycin D] (I: T[dV]P[Sar][NMeV] / II: T[dV]P[Sar][NMeV]; ester I:1-I:C, II:1-II:C; linker I:N-II:N via Actinocin(9to1))
- Rating ([1]; 0.1 mg./kg.): +++ (plus 3 (+++) when it was 10-0%)
- T/C (TPCV ratio treated/control) ([1]; 0.1 mg./kg. i.p. once a day): 0%

Molecule: O=P1(N(CCCl)CCCl)NCCCO1 (centres unmarked) [CYP, cyclophosphamide]
- Rating ([1]; 33 mg./kg.): +++ (plus 3 (+++) when it was 10-0%)
- T/C (TPCV ratio treated/control) ([1]; 33 mg./kg. i.p. once a day): 0%
- Rating ([1]; 67 mg./kg.): +++ (plus 3 (+++) when it was 10-0%)
- T/C (TPCV ratio treated/control) ([1]; 67 mg./kg. i.p. once a day): 0%
- Rating (sarcoma 180 solid tumor; 33 mg./kg.): +++ (of 20-0% plus 3 (+++))
- T/C (tumor weight ratio treated/control) (sarcoma 180 solid tumor; 33 mg./kg.): 0%
- Rating (sarcoma 180 solid tumor; 67 mg./kg.): +++ (of 20-0% plus 3 (+++))
- T/C (tumor weight ratio treated/control) (sarcoma 180 solid tumor; 67 mg./kg.): 0%
